Data taken from DBAASP.
In brackets after ≈: the same amount, converted by molar mass. Each block holds one compound with its values, some of them ahead of it.

How the values were obtained:
Experiment in all cases: ≥ marks a high value that may be exact or a test limit, other limits are often not marked, values filed in µg/mL are converted to µM
[1] = system: Aeromonas salmonicida NCIMB 1102
[2] = system: Bacillus subtilis IAM 1026
[3] = system: Escherichia coli JCM 1649
[4] = system: Photobacterium damselae subsp. piscicida Sp 9587
[5] = system: Salmonella typhimurium
[6] = system: Shewanella putrefaciens IAM 1509
[7] = system: Staphylococcus aureus IAM 1011
[8] = system: Vibrio anguillarum NCIMB 829
[9] = system: Vibrio parahaemolyticus Vp+1
[10] = system: Candida albicans ATCC 36232
[11] = system: Escherichia coli ATCC 2592
[12] = system: Micrococcus luteus ATCC 9341
[13] = system: Proteus vulgaris ATCC 6380
[14] = system: Pseudomonas aeruginosa ATCC 9027
[15] = system: Staphylococcus aureus ATCC 6538
[16] = system: Staphylococcus aureus
[17] = system: Staphylococcus aureus A170
[18] = system: Staphylococcus epidermidis
[19] = system: Cupriavidus necator H16
[20] = system: Escherichia coli BL21(DE3)
[21] = system: Escherichia coli JM109
[22] = system: Pseudomonas putida GPp104
[23] = system: Aspergillus niger CECT 2694
[24] = system: Fusarium oxysporum f. sp. lycopersici ATCC 201829
[25] = system: Penicillium expansum EPS 26
[26] = system: Rhizopus stolonifer CECT 2344

MIC [1]: 16 µM (≈ 25 µg/mL)
MIC [2]: 8.01 µM (≈ 12.5 µg/mL)
MIC [3]: ≥ 32.1 µM
MIC [4]: 8.01 µM (≈ 12.5 µg/mL)
MIC [5]: ≥ 32.1 µM
MIC [6]: 4.01 µM (≈ 6.25 µg/mL)
MIC [7]: 2.01 µM (≈ 3.13 µg/mL)
MIC [8]: ≥ 32.1 µM
SMILES: CC[C@H](C)[C@H](NC(=O)[C@H](C)NC(=O)[C@H](Cc1cnc[nH]1)NC(=O)[C@@H](NC(=O)[C@@H](NC(=O)[C@H](Cc1cnc[nH]1)NC(=O)[C@H](Cc1cnc[nH]1)NC(=O)[C@@H](NC(=O)[C@@H](N)Cc1ccccc1)[C@@H](C)CC)[C@@H](C)CC)C(C)C)C(=O)NCC(=O)N[C@@H](CCCN=C(N)N)C(=O)N[C@@H](CC(C)C)C(=O)N[C@@H](Cc1ccccc1)C(N)=O [FIHHIVHAIGRLF]
MIC [9]: ≥ 32.1 µM

MIC [23]: 22.4 µM (≈ 32.3 µg/mL)
MIC [24]: 1.73 µM (≈ 2.5 µg/mL)
MIC [25]: ≥ 70.7 µM
MIC [26]: ≥ 35.4 µM
SMILES: CC[C@H](C)[C@H](NC(=O)[C@H](CCCCN)NC(=O)[C@H](CCCCN)NC(=O)[C@H](Cc1ccccc1)NC(=O)[C@H](CC(C)C)NC(=O)[C@H](CCCCN)NC(=O)[C@@H](N)Cc1c[nH]c2ccccc12)C(=O)N[C@@H](CC(C)C)C(=O)N[C@@H](CCCCN)C(=O)N[C@@H](CCCCN)C(=O)N[C@@H](CC(C)C)C(N)=O [WKLFKKILKKL]

The remaining lines, values behind:

SMILES: CC[C@H](C)[C@H](NC(=O)[C@H](CCCCN)NC(=O)[C@@H]1CCCN1C(=O)[C@H](CC(C)C)NC(=O)[C@H](Cc1ccccc1)NC(=O)[C@H](CC(N)=O)NC(=O)[C@H](C)NC(=O)[C@H](C)NC(=O)[C@H](CC(C)C)NC(=O)CN)C(=O)N[C@@H](Cc1ccccc1)C(=O)N[C@@H](CS)C(=O)N[C@@H](CCCCN)C(=O)N[C@H](C(=O)N[C@H](C(=O)N[C@@H](CCCN=C(N)N)C(=O)N[C@@H](CCCCN)C(=O)N[C@@H](CS)C(N)=O)[C@@H](C)O)[C@@H](C)CC [GLAANFLPKIFCKITRKC]
MIC [10]: 12.4 µM (≈ 25 µg/mL)
MIC [11]: 12.4 µM (≈ 25 µg/mL)
MIC [12]: 6.18 µM (≈ 12.5 µg/mL)
MIC [13]: ≥ 49.4 µM
MIC [14]: 6.18 µM (≈ 12.5 µg/mL)
MIC [15]: 12.4 µM (≈ 25 µg/mL)
MIC [16]: 49.4 µM (≈ 100 µg/mL)

SMILES: CC[C@H](C)[C@H](NC(=O)[C@H](C)NC(=O)[C@H](CC(C)C)NC(=O)[C@@H](N)CC(C)C)C(=O)N[C@H](C(=O)NCC(=O)N[C@@H](CC(N)=O)C(=O)N[C@@H](CC(C)C)C(=O)N[C@@H](CC(C)C)C(=O)N[C@@H](CCCCN)C(=O)N[C@@H](CO)C(=O)N[C@@H](CC(C)C)C(=O)N[C@@H](CC(C)C)C(=O)O)C(C)C [LLAIVGNLLKSLL]
MIC [17]: 7.32 µM (≈ 10 µg/mL)
MIC [18]: 7.32 µM (≈ 10 µg/mL)

SMILES: CC[C@H](C)[C@H](NC(=O)[C@H](Cc1ccc(O)cc1)NC(=O)[C@@H](NC(=O)[C@@H]1CCCN1C(=O)[C@H](CCCN=C(N)N)NC(=O)[C@H](CCCN=C(N)N)NC(=O)[C@@H](NC(=O)[C@@H](N)CCCN=C(N)N)C(C)C)C(C)C)C(=O)N1CCC[C@H]1C(=O)N[C@@H](CCC(N)=O)C(=O)N1CCC[C@H]1C(=O)N[C@@H](CCCN=C(N)N)C(=O)N1CCC[C@H]1C(=O)N1CCC[C@H]1C(=O)N[C@@H](Cc1cnc[nH]1)C(=O)N1CCC[C@H]1C(=O)N[C@@H](CCCN=C(N)N)C(=O)N[C@@H](CC(C)C)C(=O)O [RVRRPVYIPQPRPPHPRL]
MIC [19]: 10 µM (≈ 22.3 µg/mL)
MIC [20]: 0.313 µM (≈ 0.699 µg/mL)
MIC [21]: 2.5 µM (≈ 5.59 µg/mL)
MIC [22]: 3.13 µM (≈ 6.99 µg/mL)
